Drawing on PubChem BioAssay (NCI), this text covers TGI for 13 molecules.

What all share (assay): NCI-60 cell line screen, 48 h
The test system of assay [1] is A498 renal.
In assay [2] the test system is BT-549 breast.
Assay [3] concerns DU-145 prostate.
Assay [4] has as its system KM12 colon.
Assay [5] deals with M14 melanoma.
The subject of assay [6] is OVCAR-3 ovarian.
Assay [7] relates to OVCAR-8 ovarian.
Assay [8] concerns RPMI-8226 leukemia.
The test system of assay [9] is SF-295 CNS.
In assay [10] the test system is SNB-75 CNS.

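Step 1: Grow cells in 96-well plates. Step 2: Expose to compound for 48 hours at 5 concentrations. Step 3: Interpolate endpoints linearly; if unreached, use highest concentration. TGI: total growth inhibition.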 Some results are limits rather than exact numbers.

Consider `CN=C1C=C(/N=C2/C=C(N/C(=C\C#N)C(C)(C)O)OC2(C)C)OC1(C)C`, for which the TGI in assay [1] is 88.9 µM; in [2] it was over 77.8 µM; in assay [3], over 100 µM; in assay [4] it was over 100 µM; in assay [5], over 78.4 µM; in [6], over 100 µM. The TGI in [7] is over 47.2 µM; in assay [8] it was over 69.6 µM; in assay [9] it was over 100 µM; in assay [10] it was over 64 µM.
For the molecule `N=C(N)c1ccc(N=Nc2c(O)c(C(=O)Nc3ccccc3)cc3ccccc23)cc1`, the TGI in [1] is over 100 µM; in [2] it was over 100 µM; in assay [3] it was over 100 µM; in [4], 29.9 µM; in assay [5] it was over 100 µM; in assay [6] it was over 53.3 µM. Moreover, the TGI was 34.5 µM in assay [7], 77.7 µM in [8], over 100 µM in [9] and 52.2 µM in assay [10].
Turning to `CN(C)c1ccc(/C=C2\N=C(c3ccccc3)N(c3nc4ccc(Sc5ccccc5)cc4[nH]3)C2=O)cc1`, the TGI in [1] is over 100 µM; in assay [2] it was over 100 µM; in assay [3], over 100 µM; in assay [4], over 100 µM; in [5], over 100 µM; in [6] it was 59.3 µM. For the same molecule, the TGI in assay [7] is over 100 µM; in [8], 71.4 µM; in assay [9], 72.2 µM; in assay [10], over 100 µM.
For `CCOC(=O)CCC(C(=O)OCC)n1nnc2cc(Nc3c(C)[n+]([O-])c4cc(Cl)ccc4[n+]3[O-])ccc21` (centres undefined), the TGI in [1], in assay [2], in assay [3], in [4], in assay [5] and in assay [6] was over 100 µM throughout. The TGI in [7], in assay [8], in assay [9] and in assay [10] was over 100 µM each time.
As to `CC1CC[C@@]2(OC1)OC1C[C@H]3[C@@H]4CC=C5C[C@@H](OC6OC(CO)C(OC7OC(CO)C(O)C(O)C7O)C(O)C6OC6OC(C)C(O)C(O)C6O)CC[C@]5(C)[C@H]4CC[C@]3(C)C1[C@@H]2C` (some centres undefined), the TGI in assay [1] worked out at 1.32 µM; in [2] it was 0.848 µM; in assay [3], 0.919 µM; in assay [4] it was 1.22 µM; in [5], 0.859 µM; in assay [6], 1.7 µM. In addition, the TGI in assay [7] was determined as 1.79 µM; in assay [8], 1.33 µM; in assay [9], 5.27 µM; in [10] it was 5.47 µM.
As for `CC(CSc1nc2c(c(=N)n1-c1ccccc1)c(=S)n(-c1ccccc1)c(=S)n2-c1ccccc1)CN(C)C` (centres undefined), the TGI in [1] amounted to 6 µM; in assay [2] it was 3.52 µM; in [3], 3.03 µM; in assay [4] it was 5.6 µM; in [5] it was 3.56 µM; in [6], 3.09 µM. The TGI in assay [7] was found to be 3 µM; in assay [8], 1.4 µM; in [9], 16.7 µM; in assay [10], 3.41 µM.
For the molecule `COc1cc2c(cc1OCCN1CCN(CCOc3cc4c(cc3OC)C(=O)N3CCC[C@H]3C=N4)CC1)N=C[C@@H]1CCCN1C2=O`, the TGI in assay [1] was over 72.5 µM; in assay [2], over 79.1 µM; in assay [3], over 100 µM; in [4], over 75.3 µM; in assay [5], over 83.6 µM; in assay [6], 66.8 µM. The TGI was over 100 µM in assay [7], 15.4 µM in assay [8], 67.3 µM in assay [9] and over 100 µM in assay [10].
As for `COc1cc(/C=C2\C(=O)N(c3ccc(Cl)cc3)C(c3ccccc3)S2(=O)=O)cc(OC)c1OC` (centres undefined), the TGI in [1] is over 100 µM; in assay [2], over 100 µM; in assay [3], over 100 µM; in assay [4], 99.3 µM; in assay [5], over 61.6 µM; in assay [6] it was over 100 µM. Also, the TGI in assay [7], in assay [8], in assay [9] and in assay [10] was over 100 µM throughout.
On to `O=c1[nH]c2ccccc2c(=O)n1/N=C\c1ccccc1O`, for which the TGI in [1], in [2], in assay [3], in assay [4], in assay [5] and in assay [6] was over 100 µM in each case. Moreover, the TGI in [8], in [9] and in assay [10] was over 100 µM each time.
For `O=C(Nc1nnc(-c2ccccc2)o1)C(SC(=S)N1CCCC1)c1ccccc1` (centres undefined), the TGI is 81.6 µM in assay [1]; 90 µM in assay [2]; over 100 µM in assay [3]; over 100 µM in assay [4]; over 100 µM in [5]; 74.4 µM in [6]. Besides, the TGI in [7], in assay [8], in assay [9] and in assay [10] was over 100 µM in each case.
As for `Cc1cc(C)n(C(=CC(=O)C(Cl)Cl)n2nc(C)cc2C)n1`, the TGI was over 100 µM in [1]; 16.1 µM in assay [2]; 23 µM in assay [3]; 24 µM in assay [4]; 13.3 µM in [5]; 16.1 µM in assay [6]. In addition, the TGI in assay [7] is 21.3 µM; in assay [8] it was 3.69 µM; in [9] it was 31.7 µM; in assay [10], over 100 µM.
With `O=C(CCCCCCCCC(=O)N1C(=O)CC(=O)N(c2ccc(Cl)cc2)C1=S)N1C(=O)CC(=O)N(c2ccc(Cl)cc2)C1=S`, the TGI in assay [1], in [2], in [3], in assay [4], in assay [5] and in assay [6] was over 100 µM in each case. For the same molecule, the TGI in assay [7], in [8], in assay [9] and in assay [10] was over 100 µM throughout.
Consider `FC(F)(Sc1ncccn1)c1nc2ccccc2o1`, for which the TGI in assay [1], in assay [2], in [3], in assay [4], in assay [5] and in assay [6] was over 100 µM in each case. The TGI in assay [7] is over 100 µM; in [8], over 100 µM; in assay [9], over 100 µM; in [10], 81.2 µM.
